Values quoted from earlier work in patent US9592230B2, “Substituted imidazoles as PDE10A inhibitors” (priority 2008, dated 2017).

Experiments:
[1] = tested on: amphetamine induced hyperactivity; details: rats
[2] = tested on: hyperactivity in rats induced by PCP
[3] = tested on: cataleptic effect of the D2 receptor antagonist haloperidol; details: rats

COc1ccc(Cc2nccc3cc(OC)c(OC)cc23)cc1OC [Papaverine, papaverine]
reduction of amphetamine induced hyperactivity [1]: insignificant | hyperactivity induced by PCP [2]: reduced hyperactivity | catalepsy on its own ([3]; alone): did not cause catalepsy on its own | effect on the cataleptic effect of haloperidol ([3]; together with haloperidol): potentiated the cataleptic effect
